Data on 9 compounds can be found in patent publication US9802897B2, “Amidopyridinol derivative or pharmaceutically acceptable salt thereof and pharmaceutical composition comprising same as active component” (Research Cooperation Foundation of Yeungnam University, priority 2013, dated 2017).

In assay [1] the test system is VEGF-induced angiogenesis in chicken chorioallantoic membrane (CAM). Description: CAM analysis of VEGF-induced angiogenesis. Type of assay: in vivo. Particulars: VEGF (20 ng/CAM) + Compound (0.01 nmol/CAM), number of blood vessels after 3 days; for inhibition in vivo at 0.01 nmol/CAM: Gallus gallus, 72 h, read-out: Inhibitory rates (%). As for the experimental part: To confirm inhibitory effects on angiogenesis through in vivo experiments, the chorioallantoic membrane (CAM) analysis was carried out (refer to Nguyen M et al., Microvascular Res., 47, pp 31-40, 1994). A fertilized egg of a chicken was cultured in conditions maintaining a temperature of 37° C. and relative humidity of 55%. On the 10th day of the culturing, a first small hole was made on an air sac part using a hypodermic needle (Green Cross Medical Corp., Korea), and then, a second hole was made on a flat part of the fertilized egg to make a window thereon. Air was removed through the first hole, i.e., the air sac part, and accordingly, the CAM was separated from the shell of the fertilized egg. Then, a grinding wheel (Multipro 395JA, Dremel, Mexico) was used to cut the air sac part, thereby making a window thereon. Next, the whatman filter disk #1 (Whatman Company, USA) was treated with 3 mg/mL of cortisone acetate, dried, and then, wet by VEGF at a concentration of 20 ng/CAM. The filter disk was placed on blood vessels through the window, and then, compounds prepared according to Examples above were each dissolved in DMSO, diluted with PBS, and then, treated for each concentration. After 3 days of treating the compounds, the CAM part on which the filter disk was placed was isolated, and then, washed with PBS. The Stemi SV6 stereomicroscope (Carl Zeiss, Germany) and the Image-Pro Plus software (Media Cybernetics; Silver Spring, Md., USA) were used to capture images of the CAM part, so as to measure the number of the blood vessels and to analyze data obtained therefrom.

The subject of assay [2] is cathepsin S. In words: RT-PCR of cathepsin S gene expression in MDA-MB-231 cells. Type of assay: cell-based. The procedure:
Each compound of the present invention was treated with breast cancer cells (1×10^5 cell/cm^2), e.g., MDA-MB-231, and then, cultured at a temperature of 37° C. for 24 hours in a cell incubator. Afterwards, a trizole reagent was used to extract the entire mRNA therefrom. 24 hours later, the culture medium was removed therefrom, 1 mL of the triazole reagent was added to each well, and then, the cell elusion was transferred to a 1.5 mL tube. After 200 μl of chloroform was added to each sample, the samples were subjected to centrifugation at a temperature of 4° C., at 12,000 g, for 15 minutes. 500 μl of the supernatant obtained therefrom was transferred to a new tube. After 500 μl of isopropylalcohol was added to each sample, the samples were subjected to centrifugation at a temperature of 4° C., at 12,000 g, for 15 minutes. The supernatant obtained therefrom was removed from each sample, and then, the samples were washed with 75% ethanol to clean mRNA while the precipitants were dried. Then, mRNA extracted therefrom was dissolved in RNase-free water, followed by being heated at a temperature of 55° C. for 10 minutes.
After the RNA quantification, the GoScript™ reverse transcription system (Promega Corporation, Madison, Wis., USA) was used to synthesize cDNA. Here, PCR was performed by using TaKaRa Taq™ (Takara bio Inc., Shiga, Japan), wherein a primer set of cathepsin S consists of a forward primer having SEQ ID NO: 1 (forward sequence: 5′-GCAGTGGCACAGTTGCATAA-3′) and a reverse primer having SEQ ID NO: 2 (reverse sequence: 5′-AGCACCACAAGAACCCATGT-3′). After the PCR product was subjected to agarose gel electrophoresis, the PCR product was stained with ethidium bromide (0.5 μg/ml), thereby obtaining images thereof by using the gel imaging system (UVP, Cambridge, UK). Here, the PCR product was quantified based on glyceraldehyde 3-phosphate dehydrogenase (GAPDH). A GAPDH primer used herein consists of a forward primer having SEQ ID NO: 3 (forward sequence: 5′-GGTGAAGGTCGGAGTCAACG-3′) and a reverse primer having SEQ ID NO: 4 (reverse sequence: 5′-CAAAGTTGTCATGGATGACC-3′).
Furthermore, to screen other amidopyridinol derivatives that inhibit metastasis of breast cancer cells, inhibitory effects on expression of cathepsin S genes were reviewed by treating 1 μM of each compound, in the same manner as in Experimental Example 9.

The test system of assay [3] is HT-29 cells / U937 cells. Description: TNF-α-induced adhesion of HT-29 intestinal epithelial cells and U937 mononuclear cells. Type of assay: cell-based, human. The settings on record: 1 μM, pre-treated 1 hour, TNF-α 10 ng/ml; for inhibition at 1 µM: Homo sapiens, read-out: Inhibitory rates (%). The procedure:
HT-29 cells were cultured in a 24-well plate at a concentration of […] cells/cm^2, and meanwhile, amidopyridinol compounds 8a to 8z were pre-treated for 1 hour at each concentration in a serum-free medium supplemented only with 1% PS. Next, 10 ng/ml of TNF-α was treated therewith to allow a reaction at a temperature of 37° C. for 3 hours. After the completion of the reaction, the medium of the HT-29 cells was removed, and then, the HT-29 cells were washed with PBS once. Afterwards, U937 cells, which were treated and reacted with 10 μg/mL of BCECF-AM at a temperature of 37° C. for 30 minutes, were allowed to react with the HT-29 cells at temperature of 37° C. for 1 hour. Then, to remove U937 cells that were not adhered to the HT-29 cells, the reacted cells were washed with PBS twice. In terms of cell dissolution, 0.1% Triton X-100 in 0.1M Tris was allowed to react with the cells for 30 minutes at room temperature, and then, the cells were subjected to quantify by measuring fluorescence thereof using the Fluostar optima microplate reader (BMG Labtechnologies, Germany).

The subject of assay [4] is MDA-MB-231 cells. Description: Transwell invasion assay of MDA-MB-231 breast cancer cells. Type of assay: cell-based. The settings on record: MDA-MB-231; for inhibition at 0.01 µM / inhibition at 0.1 µM / inhibition at 1 µM / inhibition at 10 µM: Homo sapiens, read-out: Inhibition rates of invasion of cancer cells (%). As for the experimental part: The invasion assay was performed by using the transwell insert (BD FALCON, Bedford, USA) equipped with a 8 μm pore-sized filter. An upper part of the transwell insert filter was coated with 20 μl of matrigel (1 mg/ml) while a bottom part of the same was coated with 30 μl of type I collagen (0.5 mg/ml). The MDA-MB-231 cells (5×10^5 cells/100 μl) were added to the insert chamber, and then, each inhibitor was also added thereto. To induce invasion of the cells, a medium supplemented with 5% FBS was added to each well of the bottom chamber to allow a reaction at a temperature of 37° C. in a cell incubator. 18 hours later, the cells remained after removing the solution in the insert chamber were removed by using a cotton swab, whereas cells at the bottom of the membrane were fixed with methanol and stained with hematoxylin and eosin. The cells present at the membrane were observed through a microscope, and the number of the cells was counted in the selected 5 fields at the resolution of 200×.
According to the same manner as in Experimental Example 7, inhibitory effects of the amidopyridinol derivatives synthesized in Examples above on invasion of breast cancer cells, e.g., MDA-MB-231, were reviewed. Here, to compare with, inhibitory effects of aminopyridinol derivatives, e.g., 6-amino-2,4,5-trimethylpyridine-3-ol (BJ-1101) and 6-diphenylamino-2,4,5-trimethylpyridine-3-ol (BJ-1201), on invasion of breast cancer cells, e.g., MDA-MB-231, were reviewed.

The mark [5] stands for this setting: Homo sapiens, MDA-MB-231, 24 h, screening, 1 μM of each compound, MDA-MB-231, RT-PCR, read-out: Inhibition rate of expression of cathepsin S (%).
The mark [6] stands for this setting: Homo sapiens, MDA-MB-231, 24 h, 1 μM, MDA-MB-231, 24 hours, RT-PCR, read-out: Inhibition rate of expression of cathepsin S (%).
The mark [7] stands for this setting: screening, 1 μM of each compound, MDA-MB-231, RT-PCR.

Like-named read-outs stand apart in the source and are kept apart here. Marks after values point to notes of the source that are not given here.

Consider `Cc1nc(NC(=O)CCCCl)c(C)c(C)c1O` [Compound 8c, N-(5-hydroxy-3,4,6-trimethylpyridine-2-yl)-4-chlorobutaneamide], for which the inhibition in vivo at 0.01 nmol/CAM in assay [1] amounted to 70.2 ± 4.6%. Moreover, the inhibition at 1 µM in assay [2] (setting [5]) was 27 ± 1.33%; in assay [3], 24.7%.
`Cc1nc(NC(=O)C(C)(C)C)c(C)c(C)c1O` [Compound 8f, N-(5-hydroxy-3,4,6-trimethylpyridine-2-yl)pivalamide]: the inhibition in vivo at 0.01 nmol/CAM in assay [1] came to 73.2 ± 6.4%. Also, the inhibition at 1 µM was found to be 16.4 ± 0.12% in assay [2] (setting [5]) and 37.5% in assay [3].
As for `Cc1nc(NC(=O)c2ccc(F)cc2)c(C)c(C)c1O` [Compound 8l, N-(5-hydroxy-3,4,6-trimethylpyridine-2-yl)-4-fluorobenzamide], the inhibition in vivo at 0.01 nmol/CAM in assay [1] came out at 75.3 ± 6.3%. The inhibition at 1 µM in assay [2] (setting [6]) worked out at 0%. The inhibition at 10 µM in assay [2] (Homo sapiens, MDA-MB-231, 24 h, 10 μM, MDA-MB-231, 24 hours, RT-PCR, read-out: Inhibition rate of expression of cathepsin S (%)) turned out to be 12 ± 0.35%. Besides, in assay [4], the inhibition at 0.01 µM was 8.57 ± 21.5%, the inhibition at 0.1 µM stood at 11 ± 23.1%, the inhibition at 1 µM stood at 33 ± 4.37% and the inhibition at 10 µM came out at 49.6 ± 7.82%. In addition, the “inhibitory effects on invasion of breast cancer cells (in words)” value in assay [4] is on record as “showed inhibitory effects on invasion of breast cancer cells”. Further, the inhibition at 1 µM in assay [3] came out at 13.7%.
For the compound `Cc1nc(NC(=O)c2ccc(C(C)(C)C)cc2)c(C)c(C)c1O` [Compound 8n, N-(5-hydroxy-3,4,6-trimethylpyridine-2-yl)-4-(tert-butyl)benzamide], the inhibition in vivo at 0.01 nmol/CAM in assay [1] was found to be 74.2 ± 7%. Moreover, the inhibition at 1 µM in assay [2] (setting [5]) turned out to be 8 ± 0.41%; in assay [3] it was 22.5%.
For `Cc1nc(NC(=O)c2cccc3ccccc23)c(C)c(C)c1O` [Compound 8p, N-(5-hydroxy-3,4,6-trimethylpyridine-2-yl)-1-naphthamide], in that order: 75.8 ± 5.4%, 44 ± 2.47% and 64.9%.
For `Cc1nc(NC(=O)c2cccs2)c(C)c(C)c1O` [Compound 8q, N-(5-hydroxy-3,4,6-trimethylpyridine-2-yl)thiophene-2-carboxamide], in assay [1], the inhibition in vivo at 0.01 nmol/CAM stood at 74.8 ± 13.2%. Besides, the inhibition at 0.01 µM in assay [2] (Homo sapiens, MDA-MB-231, 24 h, 0.01 μM, MDA-MB-231, 24 hours, RT-PCR, read-out: Inhibition rate of expression of cathepsin S (%)) is 42 ± 1.21%. In addition, the inhibition at 0.1 µM in assay [2] (Homo sapiens, MDA-MB-231, 24 h, 0.1 μM, MDA-MB-231, 24 hours, RT-PCR, read-out: Inhibition rate of expression of cathepsin S (%)) amounted to 52 ± 1.68%. The inhibition at 1 µM in assay [2] (setting [6]) is 57 ± 1.55%. The “effects for reducing expression of cathepsin S genes (in words)” value in assay [2] (MDA-MB-231) is recorded as “the most effects for reducing expression of cathepsin S genes”. Further, in assay [4], the inhibition at 0.01 µM came out at 47.6 ± 18.1%, the inhibition at 0.1 µM turned out to be 59 ± 10.4%, the inhibition at 1 µM came out at 65.8 ± 5.03% and the inhibition at 10 µM amounted to 67.8 ± 4.25%. Further, the “inhibitory effects on invasion of breast cancer cells (in words)” value in assay [4] was “showed inhibitory effects on invasion of breast cancer cells”. Moreover, the inhibition at 1 µM in assay [3] worked out at 68.4%.
Take `CCC(C(=O)Nc1nc(C)c(O)c(C)c1C)c1ccccc1` (stereo not drawn) [Compound 8t, N-(5-hydroxy-3,4,6-trimethylpyridine-2-yl)-2-phenyl butanamide]: in assay [2] (setting [7]), the “Inhibition rate of expression of cathepsin S (%)” value was found to be 8.2 ± 0.43%. Also, in assay [3], the “Inhibitory rates (%)” value is on record as 23.6* %.
As to `Cc1cc(C)c(C(=O)Nc2nc(C)c(O)c(C)c2C)c(C)c1` [Compound 8u, N-(5-hydroxy-3,4,6-trimethylpyridine-2-yl)-2,4,6-trimethylbenzamide], the inhibition at 1 µM worked out at 2.9 ± 0.08% in assay [2] (setting [5]) and 30.4% in assay [3].
As to “N-(5-hydroxy-3,4,6-trimethylpyridine-2-yl)isobutyryl amide [Compound 8d]”, the “Inhibitory rates (%)” value is on record as 53.2 ± 11.5 % in assay [1] and 52.3* % in assay [3]. In assay [2] (setting [7]), the “Inhibition rate of expression of cathepsin S (%)” value came out at 33 ± 1.23%.
